# Data as given in patent US20170044597A1, “ASSAY METHOD AND KIT FOR NUCLEIC ACID BINDING PROTEIN” (Hiroshima University, priority 2008, published 2017).
# Experiments:
# [1] = target: T1, recombinant human NFκB p50 (Homo sapiens, UniProt P19838); test: Detection of NF-κB (p50) inhibitory effect of aurothioglucose (Example 5); format: binding; details: 0 to 5 nmol aurothioglucose, 0.5 pmol NFκB p50, duplexes 31F/42 and 32D/41, 25° C. 30 minutes, relative to absence of aurothioglucose (FIG. 9)
# T1 construct: recombinant human NFκB p50 (Promega Corp.); purchased Promega Corp
# T1 sequence (P19838 1-433 limits assumed): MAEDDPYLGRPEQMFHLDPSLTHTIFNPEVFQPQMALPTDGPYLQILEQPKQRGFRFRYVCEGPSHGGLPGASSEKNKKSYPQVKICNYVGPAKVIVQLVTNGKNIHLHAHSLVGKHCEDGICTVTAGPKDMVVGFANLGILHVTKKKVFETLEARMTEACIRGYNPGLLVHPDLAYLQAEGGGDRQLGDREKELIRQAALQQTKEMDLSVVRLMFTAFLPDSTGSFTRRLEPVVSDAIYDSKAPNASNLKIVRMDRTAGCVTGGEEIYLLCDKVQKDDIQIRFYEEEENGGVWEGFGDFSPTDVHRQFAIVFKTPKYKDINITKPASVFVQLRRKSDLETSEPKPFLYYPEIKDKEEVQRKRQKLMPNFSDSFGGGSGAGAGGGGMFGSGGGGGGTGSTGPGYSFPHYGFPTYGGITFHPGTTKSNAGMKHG
# Text: A synthetic oligonucleotide NFkB-42 and a synthetic oligonucleotide NFkB-31-5F labeled at the 5′ terminus with fluorescein, or a synthetic oligonucleotide NFkB-41 and a synthetic oligonucleotide NFkB-32-3D labeled at the 3′ terminus with DABCYL were mixed to prepare duplexes 31F/42 and 32D/41 having a single-stranded terminus under the same conditions as in Example 1. The duplexes 31F/42 and 32D/41 have an NF-κB binding sequence.
# (§1) To a mixed solution of 31F/42 and 05C/08 (50 fmol each), 0 to 5 nmol of aurothioglucose and 0.5 pmol of recombinant human NFκB p50 (Promega Corp.) were added, and further a mixed solution of 32D/41 and 06B/07 (200 fmol each) was added. The resulting solution was mixed and reacted at 25° C. for 30 minutes. […] The fluorescence values of fluorescein and Cy3 were measured using a fluorescence plate reader Ultra (Tecan Group Ltd.). The fluorescein was excited at 485 nm, and its fluorescence was measured at 535 nm. The Cy3 was excited at 535 nm and its fluorescence was measured at 595 nm.
# SP1/oligonucleotide = test: Negative control of the screening system: strand exchange of a nucleic acid set that does not bind to NF-κB (Example 5); details: 0 to 5 nmol aurothioglucose, duplexes 05C/08 and 06B/07 as negative control, same reaction (FIG. 9)
# Text: A synthetic oligonucleotide SP1-08 and a synthetic oligonucleotide SP1-05-5C3 labeled at the 5′ terminus with Cy3, or a synthetic oligonucleotide SP1-07 and a synthetic oligonucleotide SP1-06-3B1 labeled at the 3′ terminus with BHQ1 were mixed to prepare duplexes 05C/08 and 06B/07 having a single-stranded terminus under the same conditions as in Example 1. The duplexes 05C/08 and 06B/07 have an SP1 binding sequence.
# as §1
# NF-κB = details: Yang et al. FEBS letters 1995, 361, 89-96; cited from earlier work
# recombinant human SP1 = target: T2, recombinant human SP1 (Homo sapiens, UniProt P08047); test: Effect of mismatch introduction on suppression of strand exchange, SP1 (Example 4-1); format: binding; details: 40 fmol SP05C/08B, 2.5 pmol SP1, 80 fmol of the added duplex or single strand, 25° C. 120 minutes (FIG. 7)
# T2 construct: purchased Promega Corp
# Text: A synthetic oligonucleotide SP1-05-5C3 labeled at the 5′ terminus with Cy3 and a synthetic oligonucleotide SP1-08-3B1 labeled at the 3′ terminus with BHQ1 were mixed to prepare a duplex SP05C/08B having a single-stranded terminus under the same conditions as in Example 1. Moreover, synthetic oligonucleotides SP1-06 and SP1-07, synthetic oligonucleotides SP1-21 and SP1-22, or synthetic oligonucleotides SP1-23 and SP1-24 were mixed to prepare duplexes SP06/07, SP22/21, and SP24/23 having a single-stranded terminus under the same conditions as in Example 1. These duplexes have an SP1 binding sequence.
# 40 fmol of SP05C/08B and 2.5 pmol of recombinant human SP1 (Promega Corp.) were mixed into a reaction solution (10 mM HEPES-NaOH pH 7.9, 50 mM KCl, 0.1 mM EDTA, 5 mM DTT, 10% glycerol, 0.05% IGEPAL CA-630, 15 μL) and reacted at 25° C. for 30 minutes. 80 fmol of SP06/07, SP22/21, SP24/23, SP1-07, SP1-21, or SP1-23 was added thereto, and […] of the resulting mixture was then reacted at 25° C. for 120 minutes. The fluorescence value of Cy3 was measured using a fluorescence plate reader Ultra (Tecan Group Ltd.).
# T2 sequence (P08047 whole entry): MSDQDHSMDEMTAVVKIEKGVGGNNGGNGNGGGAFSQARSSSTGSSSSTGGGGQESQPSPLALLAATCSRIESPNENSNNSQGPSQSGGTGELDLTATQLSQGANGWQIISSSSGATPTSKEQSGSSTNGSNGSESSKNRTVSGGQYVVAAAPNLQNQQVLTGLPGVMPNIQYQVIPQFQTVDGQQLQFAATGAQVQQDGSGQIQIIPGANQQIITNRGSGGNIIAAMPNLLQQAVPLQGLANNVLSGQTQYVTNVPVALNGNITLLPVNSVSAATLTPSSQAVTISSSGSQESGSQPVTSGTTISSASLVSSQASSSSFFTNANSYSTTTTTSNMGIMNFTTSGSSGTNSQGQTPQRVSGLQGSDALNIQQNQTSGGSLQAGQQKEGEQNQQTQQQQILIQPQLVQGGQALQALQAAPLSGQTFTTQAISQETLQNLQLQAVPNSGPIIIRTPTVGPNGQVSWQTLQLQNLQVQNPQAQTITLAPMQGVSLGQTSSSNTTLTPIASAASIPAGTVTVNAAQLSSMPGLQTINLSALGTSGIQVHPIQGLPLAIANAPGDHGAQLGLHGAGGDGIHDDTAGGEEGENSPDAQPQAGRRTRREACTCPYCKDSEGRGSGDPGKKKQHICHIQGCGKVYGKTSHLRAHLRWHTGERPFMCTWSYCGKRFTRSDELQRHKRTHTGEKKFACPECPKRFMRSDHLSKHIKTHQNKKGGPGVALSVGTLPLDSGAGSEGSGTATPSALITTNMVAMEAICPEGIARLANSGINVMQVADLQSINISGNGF
compound,measurement,setting,value
"OC[C@H]1O[C@H]([S-])[C@H](O)[C@@H](O)[C@@H]1O.[Au+] [aurothioglucose, Aurothioglucose]",relative fluorescence value of the NF-κB/oligonucleotide complex,[1],decreased depending on the concentration of aurothioglucose
same,relative fluorescence value of the SP1/oligonucleotide,SP1/oligonucleotide,hardly influenced
same,inhibition of NF-κB,NF-κB,known to inhibit NF-κB
"SP1-07: synthetic oligonucleotide 5′ ATTCGATCGGGGCGGGGCGACGAGC AGGCTACTCTCTGACCG 3′ (SEQ ID NO: 31) (DNA ATTCGATCGGGGCGGGGCGACGAGCAGGCTACTCTCTGACCG; DNA, backbone and methylation of C not given here)",effect of addition of SP1 on increase in fluorescence value (Cy3) caused by strand exchange,recombinant human SP1,suppressed increase in fluorescence value
